Reference: US8389523B2, “Substituted quinoxaline and an agrochemical composition thereof” (Kumiai Chemical Industry Co., Ltd., priority 2007, dated 2013)

What was measured:
Assay type in all cases: in vivo
Parameters in all cases: scale not given here
Amaranthus viridis L. [1] = test: Herbicidal effects in upland field soil treatment (Test Example 2); conditions: 1000 g active ingredient per hectare, 21st day after treatment, criteria of Table 138
Procedure, shortened: (§1)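 Pre-emergence test: seeds sown in upland soil, then soil surface sprayed with diluted wettable powder at 1000 g active ingredient per hectare (1000 liters per hectare). Greenhouse growth; herbicidal effect scored on day 21 against set criteria.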

[2] = test system: Abutilon theophrasti medicus; test: as above; conditions: 1000 g active ingredient per hectare, 21st day after treatment, criteria of Table 138
Procedure, shortened: as §1

[3] = test system: Echinochloa crus-galli (L.) P. Beauv. var. crus-galli; test: Herbicidal effects in upland field foliar treatment (Test Example 3); conditions: criteria of Table 138; for herbicidal effects on Echinochloa crus-galli (L.) P. Beauv. var. crus-galli: 1000 g of the active ingredient per hectare, 14th day after the treatment, wettable powder; for herbicidal effect (index) on Echinochloa crus-galli (L.) P. Beauv. var. crus-galli: 1000 g active ingredient per hectare, 14th day after treatment
Procedure, shortened: (§2)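 Plants grown two weeks from seed in upland soil in a greenhouse, then sprayed overall with water-diluted wettable powder at 1000 L/ha delivering 1000 g active ingredient/ha. Herbicidal effect scored by rating criteria 14 days after treatment.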

Amaranthus viridis L. [4] = test: as above; conditions: criteria of Table 138; for herbicidal effects on Amaranthus viridis L.: 1000 g of the active ingredient per hectare, 14th day after the treatment, wettable powder; for herbicidal effect (index) on Amaranthus viridis L.: 1000 g active ingredient per hectare, 14th day after treatment
Procedure, shortened: as §2

[5] = test system: Abutilon theophrasti medicus; test: as above; conditions: criteria of Table 138; for herbicidal effects on Abutilon theophrasti medicus: 1000 g of the active ingredient per hectare, 14th day after the treatment, wettable powder; for herbicidal effect (index) on Abutilon theophrasti medicus: 1000 g active ingredient per hectare, 14th day after treatment
Procedure, shortened: as §2

[6] = test system: Monochoria vaginalis (Burm. f.) Presl var. plantaginea (Roxb.) Solms-Laub.; test: Herbicidal effects in paddy field soil treatment (Test Example 1); conditions: for herbicidal effect (index) on Monochoria vaginalis (Burm. f.) Presl var. plantaginea (Roxb.) Solms-Laub.: paddy field soil treatment (Test Example 1), criteria of Table 138; for Herbicidal effects index, Monochoria vaginalis (Burm. f.) Presl var. plantaginea (Roxb.) Solms-Laub.: paddy field soil treatment, 1000 g of the active ingredient per hectare, wettable powder added dropwise on water surface, 21st day after treatment
Procedure, shortened: (§3)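 Seeds sown in puddled paddy soil, waterlogged to 3 cm depth; next day a diluted wettable powder applied dropwise to the water surface at 1000 g active ingredient per hectare. Herbicidal effect scored 21 days after treatment in a greenhouse.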

[7] = test system: Scirpus juncoides Roxb. var. ohwianus. T. Koyama; test: as above; conditions: for herbicidal effect (index) on Scirpus juncoides Roxb. var. ohwianus. T. Koyama: paddy field soil treatment (Test Example 1), criteria of Table 138; for Herbicidal effects index, Scirpus juncoides Roxb. var. ohwianus. T. Koyama: paddy field soil treatment, 1000 g of the active ingredient per hectare, wettable powder added dropwise on water surface, 21st day after treatment
Procedure, shortened: as §3

[8] = test system: Echinochloa oryzicola Vasing; test: as above; conditions: for herbicidal effect (index) on Echinochloa oryzicola Vasing: paddy field soil treatment (Test Example 1), criteria of Table 138; for Herbicidal effects index, Echinochloa oryzicola Vasing: paddy field soil treatment, 1000 g of the active ingredient per hectare, wettable powder added dropwise on water surface, 21st day after treatment
Procedure, shortened: as §3

O=C1CCCC(O)=C1C(=O)c1ccc2ccccc2n1 [comparative compound B, reference compound]
herbicidal effect (index) on Amaranthus viridis L. (Amaranthus viridis L. [1]): 2
herbicidal effect (index) on Abutilon theophrasti medicus [2]: 2
herbicidal effects on Echinochloa crus-galli (L.) P. Beauv. var. crus-galli [3]: 0
herbicidal effects on Amaranthus viridis L. (Amaranthus viridis L. [4]): 1
herbicidal effects on Abutilon theophrasti medicus [5]: 5
herbicidal effect (index) on Monochoria vaginalis (Burm. f.) Presl var. plantaginea (Roxb.) Solms-Laub. [6]: 0
herbicidal effect (index) on Scirpus juncoides Roxb. var. ohwianus. T. Koyama [7]: 0
herbicidal effect (index) on Echinochloa oryzicola Vasing [8]: 0

Cc1cc(-n2c(=O)c(C(=O)C3=C(O)CCCC3=O)nc3ccccc32)sn1 [I-156]
herbicidal effect (index) on Amaranthus viridis L. (Amaranthus viridis L. [1]): 5
herbicidal effect (index) on Abutilon theophrasti medicus [2]: 5
herbicidal effect (index) on Echinochloa crus-galli (L.) P. Beauv. var. crus-galli [3]: 5
herbicidal effect (index) on Amaranthus viridis L. (Amaranthus viridis L. [4]): 5
herbicidal effect (index) on Abutilon theophrasti medicus [5]: 5
Herbicidal effects index, Monochoria vaginalis (Burm. f.) Presl var. plantaginea (Roxb.) Solms-Laub. [6]: 5
Herbicidal effects index, Scirpus juncoides Roxb. var. ohwianus. T. Koyama [7]: 5
Herbicidal effects index, Echinochloa oryzicola Vasing [8]: 5

CN1C(=O)COc2ccc(-n3c(=O)c(C(=O)C4=C(O)CCCC4=O)nc4ccccc43)cc21 [I-275]
herbicidal effect (index) on Amaranthus viridis L. (Amaranthus viridis L. [1]): 5
herbicidal effect (index) on Abutilon theophrasti medicus [2]: 4
herbicidal effect (index) on Echinochloa crus-galli (L.) P. Beauv. var. crus-galli [3]: 5
herbicidal effect (index) on Amaranthus viridis L. (Amaranthus viridis L. [4]): 5
herbicidal effect (index) on Abutilon theophrasti medicus [5]: 4
Herbicidal effects index, Monochoria vaginalis (Burm. f.) Presl var. plantaginea (Roxb.) Solms-Laub. [6]: 5
Herbicidal effects index, Scirpus juncoides Roxb. var. ohwianus. T. Koyama [7]: 5
Herbicidal effects index, Echinochloa oryzicola Vasing [8]: 4

CC(C)c1ccc(-n2c(=O)c(C(=O)C3=C(O)CCCC3=O)nc3cccnc32)cc1 [IV-30]
herbicidal effect (index) on Amaranthus viridis L. (Amaranthus viridis L. [1]): 5
herbicidal effect (index) on Abutilon theophrasti medicus [2]: 4
herbicidal effects on Echinochloa crus-galli (L.) P. Beauv. var. crus-galli [3]: 5
herbicidal effects on Amaranthus viridis L. (Amaranthus viridis L. [4]): 5
herbicidal effects on Abutilon theophrasti medicus [5]: 4
Herbicidal effects index, Monochoria vaginalis (Burm. f.) Presl var. plantaginea (Roxb.) Solms-Laub. [6]: 5
Herbicidal effects index, Scirpus juncoides Roxb. var. ohwianus. T. Koyama [7]: 5
Herbicidal effects index, Echinochloa oryzicola Vasing [8]: 5

CC1(C)CCC(=O)C(C(=O)c2cnc3ccccc3n2)=C1O [comparative compound D, reference compound]
herbicidal effect (index) on Amaranthus viridis L. (Amaranthus viridis L. [1]): 3
herbicidal effect (index) on Abutilon theophrasti medicus [2]: 0
herbicidal effects on Echinochloa crus-galli (L.) P. Beauv. var. crus-galli [3]: 0
herbicidal effects on Amaranthus viridis L. (Amaranthus viridis L. [4]): 1
herbicidal effects on Abutilon theophrasti medicus [5]: 4
herbicidal effect (index) on Monochoria vaginalis (Burm. f.) Presl var. plantaginea (Roxb.) Solms-Laub. [6]: 4
herbicidal effect (index) on Scirpus juncoides Roxb. var. ohwianus. T. Koyama [7]: 2
herbicidal effect (index) on Echinochloa oryzicola Vasing [8]: 1

N#CCCn1c(=O)c(C(=O)C2=C(O)CCCC2=O)nc2ccccc21 [Compound I-103]
herbicidal effect (index) on Amaranthus viridis L. (Amaranthus viridis L. [1]): 5
herbicidal effect (index) on Abutilon theophrasti medicus [2]: 5
herbicidal effect (index) on Echinochloa crus-galli (L.) P. Beauv. var. crus-galli [3]: 5
herbicidal effect (index) on Amaranthus viridis L. (Amaranthus viridis L. [4]): 5
herbicidal effect (index) on Abutilon theophrasti medicus [5]: 5
Herbicidal effects index, Monochoria vaginalis (Burm. f.) Presl var. plantaginea (Roxb.) Solms-Laub. [6]: 5
Herbicidal effects index, Scirpus juncoides Roxb. var. ohwianus. T. Koyama [7]: 5
Herbicidal effects index, Echinochloa oryzicola Vasing [8]: 5

CCn1c(=O)c(C(=O)C2=C(O)CCCC2=O)nc2cccnc21 [III-7]
herbicidal effect (index) on Amaranthus viridis L. (Amaranthus viridis L. [1]): 5
herbicidal effect (index) on Abutilon theophrasti medicus [2]: 5
herbicidal effects on Echinochloa crus-galli (L.) P. Beauv. var. crus-galli [3]: 4
herbicidal effects on Amaranthus viridis L. (Amaranthus viridis L. [4]): 5
herbicidal effects on Abutilon theophrasti medicus [5]: 5
Herbicidal effects index, Monochoria vaginalis (Burm. f.) Presl var. plantaginea (Roxb.) Solms-Laub. [6]: 5
Herbicidal effects index, Scirpus juncoides Roxb. var. ohwianus. T. Koyama [7]: 5
Herbicidal effects index, Echinochloa oryzicola Vasing [8]: 5

COc1ccc2nc(C(=O)C3=C(O)CCCC3=O)c(=O)n(-c3ccc(F)cc3)c2c1 [II-304]
herbicidal effect (index) on Amaranthus viridis L. (Amaranthus viridis L. [1]): 5
herbicidal effect (index) on Abutilon theophrasti medicus [2]: 5
herbicidal effects on Echinochloa crus-galli (L.) P. Beauv. var. crus-galli [3]: 4
herbicidal effects on Amaranthus viridis L. (Amaranthus viridis L. [4]): 5
herbicidal effects on Abutilon theophrasti medicus [5]: 5
Herbicidal effects index, Monochoria vaginalis (Burm. f.) Presl var. plantaginea (Roxb.) Solms-Laub. [6]: 5
Herbicidal effects index, Scirpus juncoides Roxb. var. ohwianus. T. Koyama [7]: 5
Herbicidal effects index, Echinochloa oryzicola Vasing [8]: 5

Cc1cnc(-n2c(=O)c(C(=O)C3=C(O)CCCC3=O)nc3ccccc32)cn1 [I-373]
herbicidal effect (index) on Amaranthus viridis L. (Amaranthus viridis L. [1]): 5
herbicidal effect (index) on Abutilon theophrasti medicus [2]: 5
herbicidal effect (index) on Echinochloa crus-galli (L.) P. Beauv. var. crus-galli [3]: 5
herbicidal effect (index) on Amaranthus viridis L. (Amaranthus viridis L. [4]): 5
herbicidal effect (index) on Abutilon theophrasti medicus [5]: 5
Herbicidal effects index, Monochoria vaginalis (Burm. f.) Presl var. plantaginea (Roxb.) Solms-Laub. [6]: 5
Herbicidal effects index, Scirpus juncoides Roxb. var. ohwianus. T. Koyama [7]: 5
Herbicidal effects index, Echinochloa oryzicola Vasing [8]: 5
